Here are results for 6 compounds from patent US12201693B2, “Amanitin conjugates” (Heidelberg Pharma Research GmbH, priority 2016, dated 2025).

The term Kd denotes the free concentration of one partner at which half of the binding sites on the other are occupied at equilibrium, for simple one-to-one binding.

*1 amine or outer side, *2 acyl side, *3 side chain or, on linkers, in order; H or OH if unused. Where a SMILES comes first, the peptide text is derived from it. Bridges are numbered along the chain shown (N, C = ends). [ ]: non-standard residue; d: D form. The star is where a group is joined. ξ: configuration not given here. X2 = CC(C)C(NC(=O)CCN1C(=O)C=CC1=O)C(=O)N[C@@H](C)C(=O)Nc1ccc(CN*)cc1; ξTrp(2-yl) = O=C(C(Cc1c([*:3])[nH]c2ccccc12)N[*:1])[*:2]; Ile(4R-OH,5-OH) = C[C@H]([C@H](N)C(=O)O)[C@@H](O)CO; X3 = CC([C@H](N[*:1])C(=O)[*:2])[C@@H](O)CO; X1 = O=C([C@@H]1CC(O)CN1[*:1])[*:2]; ξD = NC(CC(=O)O)C(=O)O; ξC = NC(CS)C(=O)O

Series [1] in a line: reactivity with cysteine in PBS buffer, RP-HPLC C18. Particulars: 1 mg/mL compound, 10 mg/mL cysteine in PBS, pH 7.4 at 37° C. after 24 h, 48 h and 6 d. It is filed as physicochemical. The protocol:
1 mg/ml α-amanitin 10 mg/mL cysteine in PBS, pH 7.4 at 37° C. after 24 h, 48 h and 6 d RP-HPLC C18.
1 mg/mL β-amanitin 10 mg/mL cysteine in PBS, pH 7.4 at 37° C. after 24 h, 48 h and 6 d RP-HPLC […].
1 mg/mL amanin 10 mg/mL cysteine in PBS, pH 7.4 at 37° C. after 24 h, 48 h and 6 d RP-HPLC […].
1 mg/mL HDP 30.2105, 10 mg/mL cysteine in PBS, pH 7.4 at 37° C. after 24 h, 48 h and 6 d RP-HPLC C18; * impurity.

A short description of series [2]: Western-Blot analysis of T-D265C conjugates after incubation in human plasma, mouse plasma and PBS. It is filed as in vitro ADME. Particulars: conjugated to T-D265C antibody; 37° C. in human plasma, mouse plasma and PBS for 0, 4 and 10 days. How it is done:
Western-Blot analysis of amatoxin derivatives HOP 30.1699, HDP 30.2060 and HDP 30.2115 conjugated to T-D265C antibody after incubation at 37° C. in human plasma, mouse plasma an phosphate buffered saline (PBS) for 0, 4 and 10 days. Detection was done with a polyclonal anti-amanitin antibody from rabbit and an anti-rabbit antibody conjugated to horseradish peroxidase.

Another series concerns SKBR-3 cells. As to the kind of experiment: cytotoxicity assay on SKBR-3 cells after plasma/PBS stressing of ADCs. In kind it is cell-based. Particulars: conjugated to T-D265C, SKBR-3 cells 96 h. How it is done: Test items were incubated in human plasma at 37° C. for 0 an 4 days. Cytotoxicity assay were performed on SKBR-3 cells for 96 h.
Test items were incubated in mouse plasma at 37° C. for 0 an 4 days. Cytotoxicity assay were performed on SKBR-3 cells for 96 h.
Test items were incubated in PBS at 37° C. for 0 an 4 days. Cytotoxicity assay were performed on SKBR-3 cells for 96 h. All ADCs show adequate stability to non-enzymatic environment.

A further series deals with RNA-polymerase II (Homo sapiens, UniProt P24928). Particulars: complex between amanitin and RNA-polymerase II; cited from earlier work.

Consider `CC[C@H](C)[C@@H]1NC(=O)CNC(=O)C2Cc3c([nH]c4ccccc34)SCC(NC(=O)CNC1=O)C(=O)NC(CC(=O)O)C(=O)N1CC(O)C[C@H]1C(=O)N[C@@H](C(C)[C@@H](O)CO)C(=O)N2` (some centres unmarked) [HDP 30.2105] (cyclo(GIG[ξC][ξD][X1][X3][ξTrp(2-yl)]); thioether 4-8), for which the reactivity with cysteine entry in series [1] is recorded as “complete absence of reactivity”. With `CC[C@H](C)[C@@H]1NC(=O)CNC(=O)C2Cc3c([nH]c4ccccc34)SCC(NC(=O)CNC1=O)C(=O)N[C@@H](CC(=O)NCc1ccc(NC(=O)[C@H](C)NC(=O)C(NC(=O)CCN3C(=O)C=CC3=O)C(C)C)cc1)C(=O)N1CC(O)C[C@H]1C(=O)N[C@@H]([C@@H](C)[C@@H](O)CO)C(=O)N2` (stereo partly drawn) [HDP 30.2115] (cyclo(D(X2)[X1][Ile(4R-OH,5-OH)][ξTrp(2-yl)]GIG[ξC]); thioether 4-8), the “cross-links and loss of the amatoxin moiety (stability)” value in series [2] is “high stability and significantly reduced cross-links”. Also, the “cytotoxicity after plasma stressing” value in the series on SKBR-3 cells (human plasma at 37° C. for 0 and 4 days) is reported as “still picomolar activity”; in the series on SKBR-3 cells (mouse plasma at 37° C. for 0 and 4 days) it was “remains almost unchanged”.

Regarding amanin, in series [1], the reactivity with cysteine entry was “reduced reactivity”. amanitin: the Kd on RNA-polymerase II was 3 nM.

With α-Amanitin, the reactivity with cysteine entry in series [1] is recorded as “strong reactivity”. Consider β-Amanitin, for which the reactivity with cysteine entry in series [1] is listed as “strong reactivity”.
